Measurements reported in paper PMC7566913, “Dual Gene Delivery Reagents From Antiproliferative Alkylphospholipids for Combined Antitumor Therapy” (Frontiers in Chemistry, 2020).
Read-outs that look alike come from different tables or passages of the source.

Assays:
H292 cells [1] = system: H292 cells; parameters: method as in Gaillard et al., 2019; details: H292, 24 h at 37°C, MTT assay; ref Gaillard et al., 2019; cited from earlier work
[2] = parameters: method as in Gaillard et al., 2019; details: pyrene fluorescence, ref Gaillard et al., 2019, cited from earlier work
[3] = parameters: method as in Gaillard et al., 2019; details: ref Gaillard et al., 2019, cited from earlier work
sheep RBC [4] = details: cited from earlier work
[5] = parameters: method as in Gaillard et al., 2019; details: lipoplexes with pCMV-Gluc, N/P 3, 1 molar equivalent of DOPE; ref Gaillard et al., 2019; cited from earlier work
A549 cells [6] = system: A549 cells; parameters: method as in Gaillard et al., 2019; details: A549, 24 h at 37°C, MTT assay; ref Gaillard et al., 2019; cited from earlier work
16HBE cells [7] = system: 16HBE cells; parameters: method as in Gaillard et al., 2019; details: 24 h at 37°C, MTT assay, ref Gaillard et al., 2019; cited from earlier work
[8] = Hydrolytic stability of the APL prodrugs monitored by 31P-NMR; format: physicochemical; details: for half-life: extrapolated from the experimental data, read-out: t1/2 (time needed for 50% hydrolysis) (converted); for Hydrolytic stability after extended incubation: pH 7.4 and pH 4.5, 31 days at 25°C
Excerpt: Aqueous formulation of the APL prodrugs produces nanosized lipid aggregates that most likely enter cells through the endocytosis pathway. To produce the expected intrinsic antineoplastic effect, APL-derived phosphotriesters need to be processed into the bioactive parent APLs. The hydrolysis of the prodrugs may be under the control of a chemical stimulus, e.g., a pH decrease as observed during the maturation of endosomes, or of degradation enzymes that massively enter the endosome compartment when continuing to lysosomes. To get some information on the transformation of pro-APLs into APLs, we monitored the hydrolysis of these compounds over time, at pH 7.4 and 4.5, conditions that mimick the extracellular milieu and the environment of the late endosome, respectively. This monitoring was realized using ^31P-NMR spectroscopy, according to a previously reported method (Pierrat et al., [2013b]). Whatever the compound investigated, only one single ^31P resonance did appear during the course of the experiments, corresponding to that of the parent APL. This confirmed that hydrolysis of the pro-APLs selectively occurred at the acetal center. […] As a general trend, hydrolysis of the pro-APLs was […] under neutral conditions (i.e., pH 7.4) than under acidic ones (i.e., pH 4.5). […] Besides, substitution of one hydrogen atom with a methyl group on the acetal bridge accelerated the rate of hydrolysis of the prodrugs. […] Indeed, in biological media, the enzyme-mediated hydrolysis of such compounds can proceed far quicker than “simple” chemical hydrolysis under pH control (Pierrat et al., [2012]). […]

H292 cells [9] = experiment: Cytotoxicity, MTT assay, H292; format: cell-based, human
Experimental: (§1) The cells were exposed for a 24-h period to increasing concentration of the pro-APLs, ranging from 500 nM to 1 mM, and cell viability was assessed using the MTT colorimetric assay (Mosmann, [1983]). For the three cell lines, viability decreased in a dose-dependent manner in response to APLs and pro-APLs (Supplementary Figures 2–4). Using the best-fit regression curve method, the IC50 value (concentration that provokes 50% inhibition of the cell growth) was calculated for each compound (Table 4). The three cell lines responded to the compounds with varying sensitivities. […] This is attributed to enzyme-mediated hydrolysis of the pro-APL compounds in the complemented culture medium or in the intracellular compartment, competing with pure pH-controlled chemical hydrolysis. According to its structure, a pro-APL may or not be a substrate for specific lipases and, thus, may or not be hydrolyzed into the parent cytotoxic compound. […]
(§2) At confluency, cells were released […]
(§3) Cells were seeded into 96-well plates (Becton-Dickinson) at the required density (vide supra) in 100 µL of serum containing culture medium. […]
(§4) Mitochondrial activity measurements (MTT assay) was used to assess cytotoxicity of the compounds.
(§5) Lipid samples were prepared from a lipid film (3.6 µmol of compound evaporated from an ethanolic solution) hydrated with aqueous glucose 5 % and vigorously vortexed for 20 s before serial dilution in aqueous glucose 5 %. For addition of lipid samples to cell culture, part of the culture medium in the culture plates prepared the day before (25 µL) was removed and replaced by lipid samples (25 µL). Negative control was obtained by adding glucose 5 % to the cells instead of lipoplexes.
(§6) After a 24-h incubation period at 37 °C, culture supernatant was removed, cells were carefully washed with PBS and MTT (100 µL, 0.5 mg/mL) in complete culture medium was added. After a 1-h incubation period at 37 °C, the MTT sol ution was removed and DMSO (100 µL) was added to lyse cells and dissolve reduced MTT. Intensity of MTT reduction was then evaluated by measuring absorbance at 492 nm. Viability of cells treated with lipids or lipoplexes was expressed as the percentage of the absorbance measured in untreated cells. Value for each sample is the mean of triplicate determinations (± SD). IC50 values were determined within the 95 % confidence interval using nonlinear regression analysis with the GraphPad Prism software (GraphPad Software, San […]
(§7) All data are representative of a triplicate determination and are presented as the mean ± SD.
(§8) Statistical significance between treatments was assessed by one-way analysis of variance (ANOVA) followed by the Dunnett multiple comparison test, using the Kaleidagraph 4.5 software (Synergy Software, Reading, PA, USA). Data were considered as statistically significant for p value less than

[10] = CMC/CAC by pyrene fluorescent probe technique in ultrapure water; format: physicochemical; details: pyrene fluorescence
Experimental: The pro-APL molecules have been specifically engineered so they can be metabolized in situ under a biological stimulus to revert to the parent APL with antiproliferative activity. […] We thus aimed to determine the self-assembly properties of the APL prodrugs. […] Pyrene is a probe which fluorescence is sensitive to the polarity of the solubilizing medium. […] Fluorescence measurements were carried out in ultrapure water and data obtained for the various APLs and their prodrugs are shown in Table 2.
Pro-APLs Self-Assembly Properties
Starting from a lipid film, compounds were […]

sheep RBC [11] = experiment: Hemolytic activity, red blood cell leakage assay; details: 37°C
Experimental: To evaluate this hypothesis, the hemolytic activity of the APLs and pro-APLs was measured. Sheep RBC were incubated for 1 h with escalating doses of aqueous dispersion of the compounds at 37°C. At the end of the incubation period, hemoglobin leakage was determined spectrophotometrically.
Thus, in order to better characterize the hemolytic effect of the pro-APLs, the incubation period has been extended and release of hemoglobin was measured after 24 h.
Red blood cell (RBC) leakage assay was carried out according to a previously described procedure
(Evans et al, 2013). RBC were prepared from defibrinated sheep blood. Briefly, blood sample (5 mL) was centrifuged at 500 x g for 5 min. After removal of the yellow upper layer, an equal volume of

A549 cells [12] = experiment: Cytotoxicity, MTT assay, A549; format: cell-based, human; details: A549, 24 h at 37°C
Experimental: as §1, §2, §3, §4, §5, §6, §7, §8

[13] = Particle size and zeta potential of lipoplexes by DLS; format: physicochemical; details: lipoplexes with pCMV-Gluc, 25 °C, 5 % glucose, N/P 3, 1 molar equivalent of DOPE
Excerpt: The capacity of the pro-APLs to interact electrostatically with nucleic acids and form lipoplexes was checked by standard agarose gel electrophoresis. […] The size (hydrodynamic diameter) and charge (zeta potential, ζ) of the lipoplexes prepared at an N/P ratio of 3 with one molar equivalent of dioleoyl-sn-glycero-3-phosphatidylethanolamine (DOPE), a lipid with fusogenic properties (Hui et al., [1996]; Zuhorn et al., [2005]), were investigated by DLS (Supplementary Table 1).
as measured by DLS. Lipoplexes were prepared at 25 °C, in 5 % glucose, at a N/P ratio of 3 and with
1 molar equivalent of DOPE.
(Gaillard et al., 2019). Data are the mean of three independent measurements (± SD).

16HBE cells [14] = experiment: Cytotoxicity, MTT assay, 16HBE; format: cell-based, human; details: 24 h at 37°C
Experimental: as §1, §2, §3, §4, §5, §6, §7, §8

[15] = HEPES buffer with Triton X-100, pH 7.4
[16] = potassium acetate/acetic acid buffer with Triton X-100, pH 4.5
[17] = Homo sapiens, NCI-H292, H292, 24 h at 37°C

| Molecule | H120 (hydrolysis rate after a 120-h incubation period) ([8]; pH 4.5) [%] | H120 (hydrolysis rate after a 120-h incubation period) ([8]; pH 7.4) [%] | IC50 (H292 cells [9]; [17]) [µM] | CMC (APLs) / CAC (pro-APLs) [10] [µM] | HA200 (hemolytic activity at 200 μM) (sheep RBC [11]; 24 h) [%] | IC50 (A549 cells [12]; Homo sapiens) [µM] | Particle size of lipoplexes [13] [nm] | IC50 (16HBE cells [14]; Homo sapiens) [µM] | further results |
| --- | --- | --- | --- | --- | --- | --- | --- | --- | --- |
| CCCCCCCC/C=C\CCCCCCCCCCCCOP(=O)(OCCC[N+](C)(C)C)OCOC(=O)OCCCCCCCCCCCC (centres unmarked) [EC12] |  |  |  |  |  |  |  |  | IC50 (H292 cells [1]): 167 ± 56 µM; CMC (APLs) / CAC (pro-APLs) [2]: 1.2 ± 0.2 µM; H120 (hydrolysis rate after a 120-h incubation period) ([3]; pH 4.5): 1%; H120 (hydrolysis rate after a 120-h incubation period) ([3]; pH 7.4): 8%; HA200 (hemolytic activity at 200 μM) (sheep RBC [4]; sheep RBC, 1 h, 37°C, ref Gaillard et al., 2019): < 1%; HA200 (hemolytic activity at 200 μM) (sheep RBC [4]; sheep RBC, 24 h, 37°C, ref Gaillard et al., 2019): 9.6 ± 2.3%; Particle size of lipoplexes [5]: 117 ± 15 nm; IC50 (A549 cells [6]): 161 ± 21 µM; IC50 (16HBE cells [7]): 252 ± 112 µM |
| CCCCCCCCCCCCCCCCCCOP(=O)(OC1CC[N+](C)(C)CC1)OC(C)OC(=O)CCCCCCCCCCC.[Cl-] (centres unmarked) [P E^′12, 4-(((1-(Dodecanoyloxy)ethoxy)(octadecyloxy)phosphoryl)oxy)-1,1-dimethylpiperidin-1-ium chloride] | 60 | 60 | 116 ± 25 | 2.3 ± 1.4 | 80.1 ± 0.2 | 148 ± 38 | 610 ± 54 | 60 ± 5 | half-life [8, 15]: 84 h; half-life [8, 16]: 90 h |
| 3-((((((Dodecyloxy)carbonyl)oxy)methoxy)(octadecyloxy)phosphoryl)oxy)-N,N,N-trimethylpropan-1-aminium chloride [PC12] | 6 | 6 |  | 4.5 ± 1.6 |  |  | 576 ± 41 |  | IC50 (H292 cells [9]; H292, 24 h at 37°C): 73 ± 17 µM; IC50 (A549 cells [12]): 89 ± 24 µM; IC50 (16HBE cells [14]): 82 ± 33 µM |
| CCCCCCCC/C=C\CCCCCCCCOP(=O)(OCCC[N+](C)(C)C)OCOC(=O)OCCCCCCCCCCCC.[Cl-] (centres unmarked) [PC18:1, 3-((((((Dodecyloxy)carbonyl)oxy)methoxy)(oleyloxy)phosphoryl)oxy)-N,N,N-trimethylpropan-1-aminium chloride] |  |  | 186 ± 42 | 2.3 ± 1.0 |  | 273 ± 69 | 489 ± 130 | 207 ± 49 |  |
| Erufosine [reference compound] |  |  |  |  |  |  |  |  | IC50 (H292 cells [1]): 46 ± 8 µM; CMC (APLs) / CAC (pro-APLs) [2]: 1.6 ± 0.5 µM; CMC (APLs) / CAC (pro-APLs) ([2]; listed as erufosine): 1.6 µM; HA200 (hemolytic activity at 200 μM) (sheep RBC [4]): 84.9 ± 4.5%; IC50 (A549 cells [6]): 57 ± 8 µM; IC50 (16HBE cells [7]): 19 ± 3 µM |
| CCCCCCCCCCCCCCCCOP(=O)(OCC[N+](C)(C)C)OC(C)OC(=O)CCCCCCCCCCC.[Cl-] (centres unmarked) [M E^′12, 2-(((1-(Dodecanoyloxy)ethoxy)(hexadecyloxy)phosphoryl)oxy)-N,N,N-trimethylethan-1-aminium chloride] | 91 | 89 | 59 ± 10 | 1.3 ± 0.7 | 101.7 ± 1.8 | 139 ± 32 | 86 ± 3 | 49 ± 6 | half-life [8, 15]: 18 h; half-life [8, 16]: 17 h |
| CCCCCCCCCCCCCCCCCCOP(=O)(OCCCCCCCCCCCC)OC1CC[N+](C)(C)CC1.[Cl-] (centres unmarked) [Compound P12, 4-(((Dodecyloxy)(octadecyloxy)phosphoryl)oxy)-1,1-dimethylpiperidin-1-ium chloride] | 0 | 0 | 63 ± 5 | 1.2 ± 0.4 | 35.7 ± 4.1 | 56 ± 7 | 348 ± 43 | 72 ± 7 | Hydrolytic stability after extended incubation [8]: fully stable; HA200 (hemolytic activity at 200 μM) (sheep RBC [11]; 1 h): 8.1 ± 0.9% |
| CCCCCCCCCCCCCCCCOP(=O)(OCCCCCCCCCCCC)OCC[N+](C)(C)C (centres unmarked) [Compound M12, 2-(((Dodecyloxy)(hexadecyloxy)phosphoryl)oxy)-N,N,N-trimethylethan-1-aminium triflate] | 0 | 0 | 56 ± 7 | 1.1 ± 0.6 | 63.9 ± 8.1 | 46 ± 11 | 121 ± 13 | 107 ± 14 | Hydrolytic stability after extended incubation [8]: fully stable; HA200 (hemolytic activity at 200 μM) (sheep RBC [11]; 1 h): 13.1 ± 1.0% |
| 3-((((((Dodecyloxy)carbonyl)oxy)methoxy)(hexadecyloxy)phosphoryl)oxy)-N,N,N-trimethylpropan-1- aminium chloride [MC12] | 3 | 11 |  | 4.1 ± 2.5 |  |  | 186 ± 48 |  | IC50 (H292 cells [9]; H292, 24 h at 37°C): 81 ± 29 µM; IC50 (A549 cells [12]): 151 ± 42 µM; IC50 (16HBE cells [14]): 62 ± 15 µM |
